Laboratory results from article PMC6976569, “Structural basis of subtype-selective competitive antagonism for GluN2C/2D-containing NMDA receptors” (Nature Communications, 2020).
Several values for one entry are separate records, joined by “and”; a condition that tells them apart may be missing. Equal entries are not always repeated.

How the values were obtained:
[1] = target: T1, GluN1-4a/GluN2A-4m NMDAR (Ala414Arg, Lys738Met, Gly740Arg, Arg741Lys) (Rattus norvegicus, UniProt P35439+Q00959, A414R/G740R/K738M/R741K); assay: TEVC electrophysiology on oocytes expressing GluN1-4a/GluN2A-4m mutant; assay type: cell-based
T1 construct: we incorporated the mutations, Ala414Arg, Lys738Met, Gly740Arg, and Arg741Lys, in the full-length GluN2A (GluN2A-4m); expressed in transfected cells; host or cells: Xenopus laevis oocytes injected with cRNA
Excerpt: (§1) Our previous structure of the GluN1–GluN2A LBD complexed to PPDA unambiguously mapped the antagonist-binding site at the cleft of the bilobe architecture of the GluN2 LBD (PDB: 4NF6). […] In this study, we focus on the comparison between the GluN2A and GluN2D subunits, since sequence and functional similarities between GluN2A and GluN2B and between GluN2C and GluN2D are high. Near the PPDA-binding pocket in the GluN2A LBD (Fig. 3a), the primary sequences across the GluN2A-D subunits are mostly identical except for four residues, GluN2A-Ala414, Lys738, Gly740, and Arg741, which are Arg, Met, Arg, and Lys residues in GluN2D, respectively (Fig. 3a; yellow residues and arrows in the sequence alignment). GluN2A-Ala414 is located in the D1-lobe, whereas GluN2A-Lys738, Gly740, and Arg741 are on Helix H in the D2-lobe proximal to the predicted binding site for the carboxyethyl group of UBP791. These residues are completely conserved among human, rat, and chicken, though GluN2A-Ala414 and -Lys738 are not conserved in X. laevis (frog) and Danio rerio (zebrafish) (Supplementary Fig. 1).
(§2) Plasmids (pSP or pCI_NEO) harboring rat GluN1 or GluN2 full-length subunits were linearized by restriction digestion and transcribed according to the manufacturer’s instructions (mMESSAGE mMachine SP6 or T7 kit, ThermoFisher Scientific). Recombinant rat GluN1-4a and GluN2 were expressed by co-injecting cRNA at a 1:2 (w/w) ratio into defolliculated X. laevis oocytes (amounts varied from 0.05–25 ng per oocyte). Two-electrode voltage-clamp recordings were performed 1–3 days after injection using agarose-tipped microelectrodes (0.4–1.2 MΩ) filled with 3 M KCl at a holding potential of −60 mV. The bath solution contained 5 mM HEPES, 100 mM NaCl, 0.3 mM BaCl2, 10 mM Tricine, at pH 7.4 (adjusted with KOH). […] For the statistical evaluation, we implemented pairwise F-tests to test variances, and then performed the Student t test with equal or unequal variances as determined previously, and accounted for multiple testing with the Bonferroni correction.

[2] = target: T2, GluN1-4a/GluN2A-4m NMDAR (Ala414Arg, Lys738Met, Gly740Arg, Arg741Lys) (Rattus norvegicus, UniProt Q00959, A414R/G740R/K738M/R741K); assay: as above; assay type: cell-based; settings: Ki GluN2A-4m relative to Ki GluN2D (WT)
T2 construct: we incorporated the mutations, Ala414Arg, Lys738Met, Gly740Arg, and Arg741Lys, in the full-length GluN2A (GluN2A-4m); expressed in transfected cells; host or cells: Xenopus laevis oocytes injected with cRNA
Excerpt: as §1, §2

GluN1-4a/GluN2C NMDARs = target: T3, GluN1-4a/GluN2C NMDARs (Rattus norvegicus, UniProt P35439+Q00961); assay: TEVC electrophysiology on Xenopus laevis oocytes expressing GluN1-4a/GluN2C; assay type: cell-based; settings: Ki, 100 μM glycine, 1 or 3 μM L-glutamate
T3 construct: expressed in transfected cells; host or cells: Xenopus laevis oocytes injected with cRNA
Excerpt: (§3) The chemical definition of UBP791 used in this study is a cis-racemic mixture of (2S,3R)- and (2R,3S)-isomers.
as §2

[3] = Water solubility (statement); assay type: physicochemical; settings: authors' statement in peer review file
GluN1-4a/GluN2A NMDARs [4] = target: T4, GluN1-4a/GluN2A NMDARs (Rattus norvegicus, UniProt Q00959); assay: TEVC electrophysiology on Xenopus laevis oocytes expressing GluN1-4a/GluN2A; assay type: cell-based; settings: for fold difference of Ki vs. 2D (GluN2A): Ki GluN2A relative to Ki GluN2D (WT)
T4 construct: expressed in transfected cells; host or cells: Xenopus laevis oocytes injected with cRNA
Excerpt: as §3, §2

GluN1-4a/GluN2A NMDARs [5] = target: T5, GluN1-4a/GluN2A NMDARs (Rattus norvegicus, UniProt P35439+Q00959); assay: as above; assay type: cell-based; settings: for Ki: Cheng–Prusoff from IC50 and L-glutamate EC50, 100 μM glycine, 1 or 3 μM L-glutamate
T5 construct: expressed in transfected cells; host or cells: Xenopus laevis oocytes injected with cRNA
Excerpt: as §3, §2

T4 sequence (Q00959 23-1464, other chains not shown): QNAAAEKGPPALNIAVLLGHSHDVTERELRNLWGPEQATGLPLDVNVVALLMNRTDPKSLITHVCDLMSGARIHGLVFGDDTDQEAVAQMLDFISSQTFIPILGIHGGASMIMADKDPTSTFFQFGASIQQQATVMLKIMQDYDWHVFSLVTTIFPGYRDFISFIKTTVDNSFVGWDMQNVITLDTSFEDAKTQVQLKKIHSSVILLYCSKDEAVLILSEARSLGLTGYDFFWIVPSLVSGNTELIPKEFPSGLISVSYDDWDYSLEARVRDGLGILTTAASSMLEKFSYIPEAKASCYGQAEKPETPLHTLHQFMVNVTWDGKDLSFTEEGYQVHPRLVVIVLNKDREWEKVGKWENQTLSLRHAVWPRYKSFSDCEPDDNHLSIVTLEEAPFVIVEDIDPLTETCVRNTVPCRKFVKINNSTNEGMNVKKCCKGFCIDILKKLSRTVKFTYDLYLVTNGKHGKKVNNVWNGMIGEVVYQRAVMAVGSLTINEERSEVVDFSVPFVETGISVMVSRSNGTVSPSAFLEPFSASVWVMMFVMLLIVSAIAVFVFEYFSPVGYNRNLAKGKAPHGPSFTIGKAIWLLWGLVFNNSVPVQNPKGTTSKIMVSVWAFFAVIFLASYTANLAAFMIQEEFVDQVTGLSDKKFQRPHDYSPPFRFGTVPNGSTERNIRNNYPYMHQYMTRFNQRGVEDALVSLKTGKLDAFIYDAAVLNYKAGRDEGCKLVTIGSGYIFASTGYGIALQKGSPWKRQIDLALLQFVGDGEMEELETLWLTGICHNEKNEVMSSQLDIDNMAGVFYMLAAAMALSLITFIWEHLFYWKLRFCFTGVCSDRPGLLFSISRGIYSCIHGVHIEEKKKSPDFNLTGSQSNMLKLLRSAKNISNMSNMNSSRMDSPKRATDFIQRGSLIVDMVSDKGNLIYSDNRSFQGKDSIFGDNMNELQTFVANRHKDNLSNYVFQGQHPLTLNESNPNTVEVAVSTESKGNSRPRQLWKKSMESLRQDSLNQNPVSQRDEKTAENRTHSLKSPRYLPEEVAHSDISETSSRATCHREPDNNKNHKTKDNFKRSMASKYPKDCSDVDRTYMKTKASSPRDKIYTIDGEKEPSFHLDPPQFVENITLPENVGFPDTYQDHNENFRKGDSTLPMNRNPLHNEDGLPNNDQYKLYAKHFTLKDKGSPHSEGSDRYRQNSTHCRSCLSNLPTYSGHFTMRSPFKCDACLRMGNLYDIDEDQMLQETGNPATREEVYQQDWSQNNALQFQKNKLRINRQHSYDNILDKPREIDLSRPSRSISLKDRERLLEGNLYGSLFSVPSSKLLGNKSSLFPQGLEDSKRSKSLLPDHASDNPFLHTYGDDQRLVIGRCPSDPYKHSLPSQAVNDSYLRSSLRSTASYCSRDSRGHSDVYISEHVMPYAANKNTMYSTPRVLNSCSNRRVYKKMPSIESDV
T5 sequence (Q00959 23-1464, other chains not shown): as above
T3 sequence (Q00961 20-1237, other chains not shown): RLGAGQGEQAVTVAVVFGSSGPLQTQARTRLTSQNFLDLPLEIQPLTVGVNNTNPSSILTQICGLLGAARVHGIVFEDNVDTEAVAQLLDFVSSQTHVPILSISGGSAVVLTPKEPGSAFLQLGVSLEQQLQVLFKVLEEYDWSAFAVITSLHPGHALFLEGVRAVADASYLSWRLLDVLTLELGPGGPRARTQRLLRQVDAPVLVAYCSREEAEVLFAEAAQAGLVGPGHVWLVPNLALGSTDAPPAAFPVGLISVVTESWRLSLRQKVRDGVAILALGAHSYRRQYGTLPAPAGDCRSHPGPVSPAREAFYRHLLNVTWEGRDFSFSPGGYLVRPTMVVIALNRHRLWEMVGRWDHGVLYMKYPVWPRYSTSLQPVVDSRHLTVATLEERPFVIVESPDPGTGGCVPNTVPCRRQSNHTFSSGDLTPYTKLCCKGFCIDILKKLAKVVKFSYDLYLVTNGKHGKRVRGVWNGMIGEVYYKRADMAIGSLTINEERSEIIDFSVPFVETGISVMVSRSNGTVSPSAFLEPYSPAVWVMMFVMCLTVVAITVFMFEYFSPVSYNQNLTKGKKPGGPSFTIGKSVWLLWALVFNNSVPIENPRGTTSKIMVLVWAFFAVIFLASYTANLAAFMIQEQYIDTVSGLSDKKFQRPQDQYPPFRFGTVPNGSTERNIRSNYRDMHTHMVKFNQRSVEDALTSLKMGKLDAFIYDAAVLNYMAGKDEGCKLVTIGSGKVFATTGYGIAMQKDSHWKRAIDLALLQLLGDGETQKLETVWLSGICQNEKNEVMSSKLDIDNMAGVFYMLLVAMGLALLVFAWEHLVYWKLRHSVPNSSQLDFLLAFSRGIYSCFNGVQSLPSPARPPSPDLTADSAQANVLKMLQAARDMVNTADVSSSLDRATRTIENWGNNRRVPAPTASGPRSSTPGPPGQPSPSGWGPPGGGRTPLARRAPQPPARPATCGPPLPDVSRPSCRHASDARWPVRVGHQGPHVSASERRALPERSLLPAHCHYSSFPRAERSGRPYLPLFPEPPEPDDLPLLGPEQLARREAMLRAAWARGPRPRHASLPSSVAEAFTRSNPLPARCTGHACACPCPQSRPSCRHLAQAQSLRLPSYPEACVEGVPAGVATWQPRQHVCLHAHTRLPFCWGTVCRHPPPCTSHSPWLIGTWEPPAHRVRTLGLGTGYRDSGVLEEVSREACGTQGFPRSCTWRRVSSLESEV

SMILES | Ki [1] [nM] | fold difference of Ki vs. 2D (GluN2A-4m) [2] | Ki (GluN1-4a/GluN2C NMDARs; Cheng–Prusoff from IC50 and L-glutamate EC50) [nM] | Ki (GluN1-4a/GluN2C NMDARs; Cheng–Prusoff) | water solubility relative to PPDA [3] | fold difference of Ki vs. 2D (GluN2A) (GluN1-4a/GluN2A NMDARs [4]) | Hill coefficient (nH) (GluN1-4a/GluN2A NMDARs [4]; inhibition dose-response, 100 μM glycine, 1 or 3 μM L-glutamate) | GluN2C/2D-selectivity over GluN2A (GluN1-4a/GluN2A NMDARs [4]; ratio of Ki values) [fold] | IC50 (GluN1-4a/GluN2A NMDARs [5]) [nM] | Ki (GluN1-4a/GluN2A NMDARs [5]) | selectivity for GluN2C over GluN2A (GluN1-4a/GluN2A NMDARs [4]; ratio of Ki values) [fold]
O=C(O)CCc1ccc2c(ccc3cc(C(=O)N4CCN[C@@H](C(=O)O)[C@H]4C(=O)O)ccc32)c1 (relative stereo) [UBP791, (2S*,3R*)-1-(7-(2-carboxyethyl)phenanthrene-2-carbonyl)piperazine-2,3-dicarboxylic acid] | 710 ± 140 | ~ 8 fold | 80 ± 10 | 80 to 90 nM | more water soluble than PPDA | ~ 47 fold | 1.19 ± 0.07 | 47 | 6310 ± 400 | 4070 nM and ~4000 nM | 
O=C(O)C=Cc1ccc2c(ccc3cc(C(=O)N4CCN[C@@H](C(=O)O)[C@H]4C(=O)O)ccc32)c1 (relative stereo) [UBP1700, (2S*,3R*)-1-(7-(2-carboxyvinyl)phenanthrene-2-carbonyl)piperazine-2,3-dicarboxylic acid] | 50 | ~ 7 fold |  | 7 to 9 nM and 9 nM | more water soluble than PPDA | ~ 64 fold |  |  |  | 430 ± 40 nM | 50
